Source: US11031562B2, “Metal complexes” (Merck Patent GmbH, priority 2015, dated 2021)

How the values were obtained:
Type in all cases: physicochemical
[1] = Thermal stability: thermal storage at 360° C. for 7 days, checked by 1H NMR
[2] = Photostability in anhydrous C6D6 solution under irradiation with light of about 455 nm, checked by 1H NMR; conditions: irradiation with light of wavelength about 455 nm
[3] = Photoluminescence in solution (PL-max., PL quantum efficiency); conditions: solvent toluene; room temperature, degassed solution
[4] = Oxidation and reduction potentials by CV (HOMO, LUMO); conditions: in eV (unit assumed); for HOMO: Ox. in DCM; for LUMO: Red. in THF

Therm. stab. [1] | Photo. stab. [2] | PL-max. [3] | PLQE [3] | HOMO [4] | LUMO [4] | SMILES
decomposition | decomposition | 516 | 0.97 | −5.05 | −1.71 | Cc1cc2[n+](cc1-c1ccccc1)[Ir-3]13([c]4ccccc4-c4cccc[n+]41)([c]1ccccc1-c1cccc[n+]13)[c]1ccccc1-2 [Ir2, reference compound]
no decomp. | no decomp. | 552 | 0.94 | −5.66 | −2.64 | O=C1Oc2cc3cc(c2)OC(=O)c2ccc4[c](c2)[Ir-3]25([c]6cc1ccc6-c1cccc[n+]12)([c]1cc(ccc1-c1cccc[n+]15)C(=O)O3)[n+]1ccccc1-4 [Ir(L200)]
no decomp. | no decomp. | 539 | 0.95 | −5.34 | −2.29 | CN1C(=O)c2ccc3[c](c2)[Ir-3]245([c]6cc(ccc6-c6cccc[n+]62)C(=O)N(C)c2cc1cc(c2)N(C)C(=O)c1ccc([c]4c1)-c1cccc[n+]15)[n+]1ccccc1-3 [Ir(L300)]

SMILES | Therm. stab. [1] | Photo. stab. [2] | PL-max. [3] | PLQE [3] | HOMO [4] | LUMO [4]
c1ccc(-c2cc(-c3ccccc3)cc(-c3cccc(-c4cc[c]5c(c4)-c4cccc[n+]4[Ir-3]546([c]5ccc(-c7cccc(-c8cc(-c9ccccc9)cc(-c9ccccc9)c8)c7)cc5-c5cccc[n+]54)[c]4ccc(-c5cccc(-c7cc(-c8ccccc8)cc(-c8ccccc8)c7)c5)cc4-c4cccc[n+]46)c3)c2)cc1 [Ir1, reference compound] | – | – | 513 | 0.97 | −5.09 | −1.99
